In patent US11247976B2, “Synthetic ligands that modulate the activity of the RhlR quorum sensing receptor” (Wisconsin Alumni Research Foundation, priority 2016, dated 2022):
“Also recorded” adds a separate entry of the source. Read-outs that look alike come from different tables or passages of the source.

Tests used:
RhlR [1] = molecular target: T1, RhlR (Pseudomonas aeruginosa, UniProt P54292); assay: E. coli RhlR reporter agonism assay (JLD271/pJN105R2/pSC11-rhlI*); format: cell-based, P. aeruginosa; conditions: for Emax: read-out: Maximum Activation (%); for RhlR agonist activity in words: single-concentration screen at 10 μM
T1 construct: expressed in transfected cells; host or cells: E. coli JLD271 (ΔsdiA) with pJN105R2 (arabinose-induced) and pSC11-rhlI*
Protocol: (§1) All media and reagents for bacterial culture were purchased from commercial sources. Bacteria were cultured in Luria-Bertani broth (LB) at 37° C. with shaking at 200 rpm unless otherwise noted. The bacterial reporter strains used for this study were (i) the heterologous E. coli strain JLD271 (ΔsdiA) harboring the RhlR expression plasmid pJN105R2 and the rhlI-lacZ transcriptional fusion reporter pSC11-rhlI*, (ii) the heterologous E. coli strain JLD271 (ΔsdiA) harboring the LasR expression plasmid pJN105L and the […] transcriptional fusion reporter pSC11, and (iii) the P. aeruginosa strain PAO-JP2 (ΔlasrhlI) harboring the rhlI-gfp transcriptional fusion reporter prhlI-LVAgfp. Reporter strains JLD271/pJN105R2/pSC11-rhlI* and JLD271/pJN105L/pSC11 were grown in LB containing 100 μg/mL ampicillin and 10 μg/mL gentamicin. Freezer stocks of bacterial strains were maintained at −80° C. in 1:1 LB:50% glycerol.
(§2) To evaluate the modulatory activities of library compounds on RhlR and LasR using E. coli reporters, the strains JLD271/pJN105R2/pSC11-rhlI* and JLD271/pJN105L/pSC11 were used, respectively, as previously described.^38, 51 The following modifications were used in the RhlR agonism reporter assay, non-native compounds (10 μM or 1 mM) were compared to 1 mM BHL as the positive control. Briefly, a subculture was prepared by diluting an overnight culture 1:10 with fresh media containing 100 μg/mL ampicillin and 10 μg/mL gentamicin, and was incubated until it had grown to OD600=0.45. In all assays, L-arabinose was added to a final concentration of 4 mg/mL to induce RhlR expression. For RhlR agonism assays, activities of test compounds were measured relative to 1 mM BHL (the concentration required to induce a maximal level of RhlR activity). For RhlR antagonism assays, test compounds were competed against a concentration of BHL approximately equal to its EC50 value (10 μM). Activity was measured relative to 10 μM BHL. Inhibition was calculated by subtracting 100% from the relative activity value. Thus, 0% inhibition mimics represents no competitive displacement of 10 μM BHL by a test compound. In all assays, modifications were made to the standard Miller assay protocol to accommodate the use of the chlorophenol red-β-D-galactopyranoside (CPRG) β-galactosidase substrate. After cell lysis, 150 μL of the aqueous layer was transferred from each well of a solvent-resistant 96-well microtiter plate to the wells of a new clear, flat-bottom 96-well microtiter plate. CPRG (4 mg/mL in phosphate-buffered saline) was added to each well in 25 μL volumes. Plates were incubated at 30° C. until the positive control wells developed a red color (approximately 30 min). The amount of processed CPRG substrate was assessed by measuring the absorbance of each well at 570 nm. Enzymatic activity was calculated using the following equation: adjusted Miller units=1000·Abs570/(OD600·t·V),
(§3) where t is the incubation time of substrate with lysate and V is the volume of culture lysed.
Because LuxR-type receptors are often unstable in solution, preventing the use of in vitro assays to directly assess small molecule agonism and antagonism, reporter gene assays represent a standard method for screening small-molecule libraries for LuxR-type receptor modulation. Previously reported strains for this purpose were used in the current study.^38 Synthetic N-butanoyl L-homoserine lactone (BHL), the native ligand of RhlR, was used as the positive control for receptor activation. Commonly, agonists are measured relative to maximum possible receptor activation within a particular assay medium;^40 because the dose-response curve of BHL is distinctly shallow in these RhlR reporters, a high concentration of BHL is required to maximally activate RhlR. In this study, activation of compounds was measured relative to that elicited by 1 mM BHL (the concentration of BHL used causes no aberrant growth effects in the reporter strain). […]

RhlR [2] = molecular target: T1, RhlR; assay: E. coli RhlR reporter antagonism assay vs 10 μM BHL (JLD271/pJN105R2/pSC11-rhlI*); format: cell-based, P. aeruginosa; conditions: for inhibition at 10 µM: read-out: % inhibition (10 μM), compound at 10 μM in the presence of 10 μM BHL; for Maximum Inhibition (%): E. coli reporter, relative to activation of 10 μM BHL alone; for RhlR antagonist activity in words: E. coli reporter vs 10 μM BHL
Protocol: as §1
as §2, with “For RhlR antagonism assays, test compounds were competed against a concentration of BHL approximately equal to its EC50 value (10 μM).” left out
as §3
The RhlR-modulatory activity of the J library compounds was assessed in a heterologous reporter strain (E. coli JLD271 harboring plasmids pJN105R2 and pSC11-rhlI*) in order to isolate the RhlR receptor from upstream QS regulation (e.g. regulation by LasR). Thus, the extent to which compounds were directly modulating RhlR could be determined. These assays were performed by incubating compound-treated, mid-log phase E. coli reporter cells in 96-well microtiter plates, followed by Miller assay evaluation of ß-galactosidase activity.
RhlR agonism and antagonism screens of each compound were performed initially at 10 μM.

[3] = compound at 10 μM, RhlR activity relative to 1 mM BHL, E. coli reporter
[4] = negative = agonism stronger than 10 μM BHL alone
[5] = read-out: % inhibition (1 mM), compound at 1 mM in the presence of 10 μM BHL, negative = agonism stronger than 10 μM BHL alone

T1 sequence (P54292 whole entry): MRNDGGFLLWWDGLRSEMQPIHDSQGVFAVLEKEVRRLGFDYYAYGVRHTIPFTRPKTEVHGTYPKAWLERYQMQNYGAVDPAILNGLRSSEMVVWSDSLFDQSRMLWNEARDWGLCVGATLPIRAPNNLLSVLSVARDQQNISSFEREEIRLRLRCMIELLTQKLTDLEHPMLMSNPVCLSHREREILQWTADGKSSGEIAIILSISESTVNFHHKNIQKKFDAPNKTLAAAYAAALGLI

SMILES | activation at 10 µM (RhlR [1]; [3]) [%] | inhibition at 10 µM (RhlR [2]; [4]) [%] | inhibition at 1000 µM (RhlR [2]; [5]) [%] | RhlR agonist activity in words (RhlR [1]; E. coli reporter) | further results
C#CCCCC(=O)N[C@H]1CCOC1=O [Compound J8] | 34 | -2 | -76 |  | 
CCCCCCCCCC(=O)CC(=O)N[C@H]1CCOC1=O [OdDHL, N-(3-oxododecanoyl) HL, reference compound] |  |  |  |  | % activation (RhlR [1]; [3]): 5%; % inhibition (10 μM) (RhlR [2]; compound at 10 μM in the presence of 10 μM BHL, negative = agonism stronger than 10 μM BHL alone): 18%; % inhibition at 200 µM (RhlR [2]; screened at a maximal concentration of 200 microM (solubility), in the presence of 10 μM BHL): 53%
O=C(CC1CC1)N[C@H]1CCOC1=O [Compound J25] | 70 | -47 | -108 | strong | EC50 (RhlR [1]): 2.76 µM; RhlR agonist potency in words (RhlR [1]; dose-response, E. coli reporter): significantly more potent than BHL; Emax (RhlR [1]): 95%
CCC(=O)N[C@H]1CCOC1=O [Compound C3-AHL] | 25 | -5 | -66 | comparably less active than their respective counterparts | 
CCCC(=O)NCC1CCCN1 (centres unmarked) [RN11] | 0 | -3 | -1 |  | 
O=C(COc1ccc(I)cc1)NC1CCCC1 [RN17] | 1 | 6 |  |  | Maximum Inhibition (%) (RhlR [2]): 31%; inhibition at 1000 µM (RhlR [2]; read-out: % inhibition (1 mM), screened at a maximal concentration of 100 microM (solubility), in the presence of 10 μM BHL): 24%
C#CCCC(=O)N[C@H]1CCOC1=O [Compound J7] | 45 | -7 | -83 | activities statistically insignificant from native ligand BHL | 
CCCC(=O)NC1CCOC1 (centres unmarked) [RN2] | 0 | -5 | 20 |  | 
O=C(N[C@H]1CCOC1=O)C1CC1 [Compound J23] | 32 | -2 | -69 | comparably less active than their respective counterparts | 
C=CCC(=O)N[C@H]1CCOC1=O [Compound J2] | 39 | 6 | -110 | comparably less active than their respective counterparts | 
C/C=C\CC(=O)N[C@H]1CCOC1=O [Compound J5] | 52 | -12 | -74 | activities statistically insignificant from native ligand BHL | EC50 (RhlR [1]): 6.93 µM; Emax (RhlR [1]): 80%
CC(C)(C)C(=O)N[C@H]1CCOC1=O [Compound J20] | 1 | 0 | 25 | inactive as agonists | RhlR antagonist activity in words (RhlR [2]): capable of inhibiting RhlR activity to a statistically significant extent
C=CCCCC(=O)N[C@H]1CCOC1=O [Compound J3] | 41 | -4 | -69 |  | 
CC1(C(=O)N[C@H]2CCOC2=O)CC1 [Compound J27, 1-methyl-cylclopropanoyl AHL] | 2 | 2 | 24 | inactive | RhlR antagonist activity in words (RhlR [2]): capable of inhibiting RhlR activity to a statistically significant extent
CCCC(=O)N[C@@H]1CCOC1=O [RN5] | 2 | 1 | 11 |  | 
CCCC(=O)NC1CCCC1 [RN4] | 0 | 9 | 45 |  | 
O=C(COc1ccc(I)cc1)NCC1CCCO1 (centres unmarked) [RN23] | 0 | 6 | > 50 |  | IC50 (RhlR [2]): > 100 µM; RhlR antagonist activity in words (RhlR [2]): potent antagonist activity; also recorded: negligible maximum potency difference from its head group parent compound RN10; Maximum Inhibition (%) (RhlR [2]): 56%
CC(C)CC(=O)NC1CCCC1 [RN39] | 0 | 11 | 31 |  | 
CCC(C)(C)C(=O)N[C@H]1CCOC1=O [Compound J21] | 5 | 3 | 7 | inactive as agonists | 
C/C=C/CC(=O)N[C@H]1CCOC1=O [Compound J4] | 21 | 9 | -47 |  | 
CCCC(=O)O[C@H]1CCOC1=O [RN7] | 0 | 4 | 6 |  | 
CCCCC(=O)N[C@H]1CCOC1=O [Compound C5-AHL] | 53 | -18 | -91 | comparable RhlR activation to that of BHL | EC50 (RhlR [1]): 10.8 µM; Emax (RhlR [1]): 80%
CCC(C)C(=O)N[C@H]1CCOC1=O (some centres unmarked) [Compound J19] | 55 | -24 | -101 | comparable RhlR activation to that of BHL | EC50 (RhlR [1]): 7.77 µM; Emax (RhlR [1]): 95%
CCCS(=O)(=O)N[C@H]1CCOC1=O [RN6] | 1 | 8 | 55 |  | 
CCC(CC)C(=O)N[C@H]1CCOC1=O [Compound J22] | 28 | 2 | -66 |  | 
